Reference: patent US20070081951A1, “Prevention of dental plaque and dental calculus in animals” (priority 2005, published 2007)

Assays:
[1] = system: Actinomyces viscosus (AV); assay: Zones of inhibition of growth on TSA agar plates, Actinomyces viscosus (AV); type: cell-based; settings: for Zones of Inhibition of Growth, AV: 20 ul specimen on TSA agar lawn, 37° C., 5% CO2, read at 24 and 48 h, CPC 0.05%, CHX 0.1%, acids 1% (wt. %)
Experimental: (§1) This study was conducted to determine whether anti-calculus agents inhibit the antimicrobial activity of cetyl pyridium chloride […] and chlorhexidine (CHX).
(§2) Experimental Design: TSA agar plates were individually swabbed with fresh 24 h broth cultures of Streptococcus mutans (TH16), Streptococcus parasanguis (FW213) and Actinomyces viscosus (AV) to provide a confluent lawn of bacterial growth. Five minutes after swabbing the plates (to allow the inoculum to absorb into the agar), 20 ul of each test specimen (see below) was placed onto designated places on the plates and allowed to absorb into the agar. The plates were incubated agar-side up at 37° C. in 5% CO2 for 48 h. Plates were examined at 24 and 48 h for zones of inhibition of growth for each bacterial species. The diameter of each zone was measured in mm. The zones of inhibition of each mixture (anti-calculus and antimicrobial agents) were compared to the zones of each agent separately. If the zones of the mixtures were the same size (or larger) than the inhibition zones from the antimicrobial agent alone then there was no inhibition of antimicrobial activity by the anti-calculus agent.
(§3) Test Specimens: There were 12 different samples/test specimens used in this experiment. Test groups included (concentrations are wt. %): cetyl pyridium chloride ([…]; commercially available from ICN Biomedicals, Inc., Aurora, Ohio) at a concentration of 0.05%; CPC at 0.05%+1.0% malic acid; CPC at 0.05%+1% fumaric acid; CPC at 0.05%+1% citric acid; chlorhexidine (CHX; commercially available ICN Biomedicals, Inc., Aurora, Ohio) at 0.1% alone; CHX at 0.1%+1% malic acid; CHX at 0.1%+1% fumaric acid; CHX at 0.1%+1% citric acid; 1% malic acid; 1% fumaric acid; 1% citric acid.
(§4) Results: See Table 1 (below). This study was designed to determine whether or not the polycarboxylic acids (anti-calculus agents) altered the activity of the anti-microbial agents. Decreases in the width of the zone of inhibition when the polycarboxylic acid is combined with the antimicrobial agent, as compared to the width of the zone of inhibition for the antimicrobial agent alone, is an indication that the polycarboxylic acid reduced the activity of the anti-microbial agent. Differences in the width of the zone of inhibition of ±3 mm are not considered to be significant.

[2] = system: Streptococcus parasanguis (FW213); assay: Zones of inhibition of growth on TSA agar plates, Streptococcus parasanguis (FW213); type: cell-based; settings: for Zones of Inhibition of Growth, FW213: 20 ul specimen on TSA agar lawn, 37° C., 5% CO2, read at 24 and 48 h, CPC 0.05%, CHX 0.1%, acids 1% (wt. %)
Experimental: as §1, §2, §3, §4

[3] = system: Streptococcus mutans (TH16); assay: Zones of inhibition of growth on TSA agar plates, Streptococcus mutans (TH16); type: cell-based; settings: for Zones of Inhibition of Growth, TH16: 20 ul specimen on TSA agar lawn, 37° C., 5% CO2, read at 24 and 48 h, CPC 0.05%, CHX 0.1%, acids 1% (wt. %)
Experimental: as §1, §2, §3, §4

dental plaque in cats = assay: Example 3: antimicrobial rinses in cats, 4-week dental plaque formation; type: in vivo; settings: 4-week test periods, clinical plaque grading
Experimental: The presence of dental plaque was assessed clinically by disclosing the plaque with an aqueous solution containing 1.5% D&C Red #28, removing the excess disclosant by spraying with tap water, and then determining the amount of plaque present on the occlusal and gingival halves of the buccal surface of each tooth using the following numerical scale: 0=no observable plaque; 1=scattered plaque covering <24% of the tooth surface; 2=plaque covering between 25 and 49% of the tooth surface; 3=plaque covering between 50 and 74% of the tooth surface; and 4=plaque covering 75% or more of the tooth surface. The plaque intensity or thickness was assessed for each area using the following subjective numerical scale: 1=light or thin layer of plaque; 2=moderate thickness of about 1 mm; and 3=heavy or thick layer of plaque in excess of 1 mm in thickness. The results of the assessments were summarized for each animal by multiplying the plaque coverage score by the intensity factor for each occlusal and gingival segment of each tooth, summing the scores for the occlusal and gingival segments to obtain an individual tooth score, and summing the individual tooth scores and dividing by the number of teeth graded.
The treatments were applied as rinses with 4-week test periods using the same procedures as described for Example 2. The amount of plaque present at the conclusion of the test period was graded clinically using the numerical scale described previously.

[4] = zone of mixture vs antimicrobial agent alone, differences of ±3 mm not significant

Row | Compound | Zones of Inhibition of Growth, AV [1] | Zones of Inhibition of Growth, FW213 [2] | Zones of Inhibition of Growth, TH16 [3] | Change of antimicrobial activity on combining with the polycarboxylic acids, A. viscosus [1, 4] | Change of antimicrobial activity on combining with the polycarboxylic acids, S. parasanguis [2, 4] | Change of antimicrobial activity on combining with the polycarboxylic acids, S. mutans [3, 4] | Reduction in the formation of dental plaque (dental plaque in cats)
1 | O=C(O)CC(O)(CC(=O)O)C(=O)O [C (citric acid), citric acid] | 0 mm | 0 mm | Weak* (Weak = very slight activity; <1 mm) | – | – | – | –
2 | [H]/N=C(\N/C(=N/[H])NCCCCCCNC(=N)NC(=N)Nc1ccc(Cl)cc1)Nc1ccc(Cl)cc1 [CHX alone, chlorhexidine gluconate] | 20 mm | 13 mm | 6 mm | decreased by the presence of fumaric acid | not altered | not altered | –
3 | O=C(O)/C=C/C(=O)O [F (fumaric acid), fumaric acid] | 0 mm | 0 mm | Weak* (Weak = very slight activity; <1 mm) | – | – | – | –
4 | O=C(O)CC(O)C(=O)O (stereo not drawn) [M (malic acid), malic acid] | 0 mm | 0 mm | Weak* (Weak = very slight activity; <1 mm) | – | – | – | –
5 | Oc1cc(Cl)ccc1Oc1ccc(Cl)cc1Cl [Triclosan] | – | – | – | – | – | – | 14.8%
6 | CCCCCCCC(=O)O [caprylic acid] | – | – | – | – | – | – | 10.2%
7 | [F][Sn][F] [stannous fluoride] | – | – | – | – | – | – | no reduction
